Source: PubChem BioAssay (NCI)
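Cultured in 96-well plates, cells were exposed to test compound for 48 hours across five concentrations. GI50 marks 50% less growth. TGI marks complete inhibition of growth.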

Columns and labels:
Assay in all cases: NCI tumour cell line growth inhibition, 48 h
A498 renal = test system: A498 renal
SW-620 colon = test system: SW-620 colon
K-562 leukemia = test system: K-562 leukemia
MDA-MB-231 breast = test system: MDA-MB-231 breast
CAKI-1 renal = test system: CAKI-1 renal
HCT-116 colon = test system: HCT-116 colon
SF-268 CNS = test system: SF-268 CNS
LOX IMVI melanoma = test system: LOX IMVI melanoma
UACC-257 melanoma = test system: UACC-257 melanoma
MOLT-4 leukemia = test system: MOLT-4 leukemia
OVCAR-3 ovarian = test system: OVCAR-3 ovarian
KM12 colon = test system: KM12 colon
HCT-15 colon = test system: HCT-15 colon
HCC-2998 colon = test system: HCC-2998 colon
NCI-H226 lung = test system: NCI-H226 lung
HOP-92 NSCLC = test system: HOP-92 NSCLC
SK-MEL-28 melanoma = test system: SK-MEL-28 melanoma
SF-295 CNS = test system: SF-295 CNS
NCI/ADR-RES ovarian = test system: NCI/ADR-RES ovarian
MDA-MB-435 = test system: MDA-MB-435
IGROV1 ovarian = test system: IGROV1 ovarian
TK-10 renal = test system: TK-10 renal
COLO 205 colon = test system: COLO 205 colon
OVCAR-5 ovarian = test system: OVCAR-5 ovarian
SN12C renal = test system: SN12C renal
SK-OV-3 ovarian = test system: SK-OV-3 ovarian
CCRF-CEM leukemia = test system: CCRF-CEM leukemia
NCI-H23 lung = test system: NCI-H23 lung
HL-60(TB) leukemia = test system: HL-60(TB) leukemia
UACC-62 melanoma = test system: UACC-62 melanoma
HOP-62 NSCLC = test system: HOP-62 NSCLC
DU-145 prostate = test system: DU-145 prostate
BT-549 breast = test system: BT-549 breast
OVCAR-4 ovarian = test system: OVCAR-4 ovarian
UO-31 renal = test system: UO-31 renal
U251 CNS = test system: U251 CNS
RXF 393 renal = test system: RXF 393 renal
SK-MEL-2 melanoma = test system: SK-MEL-2 melanoma
HS 578T breast = test system: HS 578T breast
PC-3 prostate = test system: PC-3 prostate
SF-539 CNS = test system: SF-539 CNS
SNB-75 CNS = test system: SNB-75 CNS
RPMI-8226 leukemia = test system: RPMI-8226 leukemia
NCI-H522 lung = test system: NCI-H522 lung
A549 NSCLC = test system: A549 NSCLC
SNB-19 CNS = test system: SNB-19 CNS
T-47D breast = test system: T-47D breast
SK-MEL-5 melanoma = test system: SK-MEL-5 melanoma
NCI-H460 lung = test system: NCI-H460 lung
EKVX NSCLC = test system: EKVX NSCLC
M14 melanoma = test system: M14 melanoma
MCF7 breast = test system: MCF7 breast
HT29 colon = test system: HT29 colon
786-0 renal = test system: 786-0 renal
OVCAR-8 ovarian = test system: OVCAR-8 ovarian
ACHN renal = test system: ACHN renal

S=C(Nc1ccccc1)N1CCn2c1nsc2=Nc1ccccc1
GI50 (A498 renal): 77.9 µM | TGI (A498 renal): > 100 µM | GI50 (SW-620 colon): 48.4 µM | TGI (SW-620 colon): > 100 µM | GI50 (K-562 leukemia): 31.3 µM | TGI (K-562 leukemia): > 100 µM | GI50 (MDA-MB-231 breast): 34.8 µM | TGI (MDA-MB-231 breast): > 100 µM | GI50 (CAKI-1 renal): > 100 µM | TGI (CAKI-1 renal): > 100 µM | GI50 (HCT-116 colon): 34.6 µM | TGI (HCT-116 colon): > 100 µM | GI50 (SF-268 CNS): > 100 µM | TGI (SF-268 CNS): > 100 µM | GI50 (LOX IMVI melanoma): 29.1 µM | TGI (LOX IMVI melanoma): > 100 µM | GI50 (UACC-257 melanoma): > 100 µM | TGI (UACC-257 melanoma): > 100 µM | GI50 (MOLT-4 leukemia): 56.5 µM | TGI (MOLT-4 leukemia): > 100 µM | GI50 (OVCAR-3 ovarian): 90 µM | TGI (OVCAR-3 ovarian): > 100 µM | GI50 (KM12 colon): > 100 µM | TGI (KM12 colon): > 100 µM | GI50 (HCT-15 colon): 78.2 µM | TGI (HCT-15 colon): > 100 µM | GI50 (HCC-2998 colon): > 100 µM | TGI (HCC-2998 colon): > 100 µM | GI50 (NCI-H226 lung): 61.6 µM | TGI (NCI-H226 lung): > 100 µM | GI50 (HOP-92 NSCLC): 92.7 µM | TGI (HOP-92 NSCLC): > 100 µM | GI50 (SK-MEL-28 melanoma): > 100 µM | TGI (SK-MEL-28 melanoma): > 100 µM | GI50 (SF-295 CNS): 40.4 µM | TGI (SF-295 CNS): > 100 µM | GI50 (NCI/ADR-RES ovarian): > 100 µM | TGI (NCI/ADR-RES ovarian): > 100 µM | GI50 (MDA-MB-435): > 100 µM | TGI (MDA-MB-435): > 100 µM | GI50 (IGROV1 ovarian): 50.2 µM | TGI (IGROV1 ovarian): > 100 µM | GI50 (TK-10 renal): 26.6 µM | TGI (TK-10 renal): 95 µM | GI50 (COLO 205 colon): > 100 µM | TGI (COLO 205 colon): > 100 µM | GI50 (OVCAR-5 ovarian): > 100 µM | TGI (OVCAR-5 ovarian): > 100 µM | GI50 (SN12C renal): > 100 µM | TGI (SN12C renal): > 100 µM | GI50 (SK-OV-3 ovarian): > 100 µM | TGI (SK-OV-3 ovarian): > 100 µM | GI50 (CCRF-CEM leukemia): 31.4 µM | TGI (CCRF-CEM leukemia): > 100 µM | GI50 (NCI-H23 lung): 41.1 µM | TGI (NCI-H23 lung): > 100 µM | GI50 (HL-60(TB) leukemia): > 100 µM | TGI (HL-60(TB) leukemia): > 100 µM | GI50 (UACC-62 melanoma): 45.9 µM | TGI (UACC-62 melanoma): > 100 µM | GI50 (HOP-62 NSCLC): > 100 µM | TGI (HOP-62 NSCLC): > 100 µM | GI50 (DU-145 prostate): > 100 µM | TGI (DU-145 prostate): > 100 µM | GI50 (BT-549 breast): 76.7 µM | TGI (BT-549 breast): > 100 µM | GI50 (OVCAR-4 ovarian): > 100 µM | TGI (OVCAR-4 ovarian): > 100 µM | GI50 (UO-31 renal): > 100 µM | TGI (UO-31 renal): > 100 µM | GI50 (U251 CNS): 33 µM | TGI (U251 CNS): > 100 µM | GI50 (RXF 393 renal): > 100 µM | TGI (RXF 393 renal): > 100 µM | GI50 (SK-MEL-2 melanoma): > 100 µM | TGI (SK-MEL-2 melanoma): > 100 µM | GI50 (HS 578T breast): 53.4 µM | TGI (HS 578T breast): > 100 µM | GI50 (PC-3 prostate): 53.3 µM | TGI (PC-3 prostate): > 100 µM | GI50 (SF-539 CNS): > 100 µM | TGI (SF-539 CNS): > 100 µM | GI50 (SNB-75 CNS): 66.5 µM | TGI (SNB-75 CNS): > 100 µM | GI50 (RPMI-8226 leukemia): 40.9 µM | TGI (RPMI-8226 leukemia): > 100 µM | GI50 (NCI-H522 lung): 46.2 µM | TGI (NCI-H522 lung): > 100 µM | GI50 (A549 NSCLC): > 100 µM | TGI (A549 NSCLC): > 100 µM | GI50 (SNB-19 CNS): > 100 µM | TGI (SNB-19 CNS): > 100 µM | GI50 (T-47D breast): > 100 µM | TGI (T-47D breast): > 100 µM | GI50 (SK-MEL-5 melanoma): 37.8 µM | TGI (SK-MEL-5 melanoma): > 100 µM | GI50 (NCI-H460 lung): > 100 µM | TGI (NCI-H460 lung): > 100 µM | GI50 (EKVX NSCLC): > 100 µM | TGI (EKVX NSCLC): > 100 µM | GI50 (M14 melanoma): > 100 µM | TGI (M14 melanoma): > 100 µM | GI50 (MCF7 breast): > 100 µM | TGI (MCF7 breast): > 100 µM | GI50 (HT29 colon): > 100 µM | TGI (HT29 colon): > 100 µM | GI50 (786-0 renal): 53.3 µM | TGI (786-0 renal): > 100 µM | GI50 (OVCAR-8 ovarian): > 100 µM | TGI (OVCAR-8 ovarian): > 100 µM | GI50 (ACHN renal): 50.3 µM | TGI (ACHN renal): > 100 µM
